Experimental data reported in PubChem BioAssay (NCI).
Several values for one entry are separate records, joined by “and”; a condition that tells them apart may be missing. Equal entries are not always repeated.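 In this assay, cells in 96-well plates receive the compound at five concentrations for 48 hours. Endpoints are linearly interpolated between the surrounding concentrations. GI50 is the concentration that inhibits growth by half. TGI is the concentration that stops growth completely.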

Assays:
Assay in all cases: NCI tumour cell line growth inhibition, 48 h
NCI-H460 lung = tested on: NCI-H460 lung
MDA-MB-435 = tested on: MDA-MB-435
RPMI-8226 leukemia = tested on: RPMI-8226 leukemia
SR leukemia = tested on: SR leukemia
CAKI-1 renal = tested on: CAKI-1 renal
DU-145 prostate = tested on: DU-145 prostate
IGROV1 ovarian = tested on: IGROV1 ovarian
TK-10 renal = tested on: TK-10 renal
T-47D breast = tested on: T-47D breast
SF-268 CNS = tested on: SF-268 CNS

Compound	TGI (NCI-H460 lung)	TGI (MDA-MB-435)	TGI (RPMI-8226 leukemia)	TGI (SR leukemia)	TGI (CAKI-1 renal)	TGI (DU-145 prostate)	TGI (IGROV1 ovarian)	TGI (TK-10 renal)	TGI (T-47D breast)	TGI (SF-268 CNS)	GI50 (NCI-H460 lung)	GI50 (MDA-MB-435)	GI50 (RPMI-8226 leukemia)	GI50 (SR leukemia)	GI50 (CAKI-1 renal)	GI50 (DU-145 prostate)	GI50 (IGROV1 ovarian)	GI50 (TK-10 renal)	GI50 (T-47D breast)	GI50 (SF-268 CNS)
O=C(O)c1ccc(S(=O)(=O)N=Nc2c(O)[nH]c3ccccc23)cc1	> 100 µM	> 100 µM	> 100 µM	> 100 µM	> 100 µM	> 100 µM	> 100 µM	> 100 µM	> 100 µM	> 100 µM										
CCN(Cc1nc2cc(C(F)(F)F)ccc2nc1-c1ccccc1)c1ccc(OC)c(OC)c1	> 100 µM	32.4 µM	11.2 µM	31.2 µM	64.2 µM	31.9 µM	33.7 µM	82.3 µM	61.2 µM	> 100 µM	22.2 µM	16.4 µM	2.51 µM	7.61 µM	17.4 µM	14.5 µM	16.8 µM	28 µM	18.5 µM	26.1 µM
CCCC(=O)NC(c1ccc2c(c1)OCO2)c1ccc2cccnc2c1O (stereo unspecified)	10.6 µM	> 100 µM	27.8 µM	> 100 µM	> 100 µM	> 100 µM	> 100 µM	> 100 µM	> 100 µM	> 100 µM	0.527 µM	3.7 µM	1.03 µM	0.402 µM	0.669 µM	2 µM	0.888 µM	2.97 µM	2.24 µM	1.46 µM
CC12CCc3ccccc3C1=Nc1ccccc12 (stereo unspecified)	> 100 µM	82.6 µM		> 100 µM	51.6 µM	> 100 µM	> 100 µM	> 100 µM	> 100 µM	> 100 µM										
CCCCCC(=O)OCC(=O)O[C@@H]1C[C@]2(C(C)C)O[C@@]1(C)[C@@H]1CC[C@@H](C)[C@H]1[C@@H]2OC(=O)/C=C/c1ccccc1	> 94.8 µM	> 86.4 µM	> 100 µM	> 100 µM	0.221 µM	> 72.4 µM	> 55.8 µM	> 93.5 µM	> 92.7 µM	> 84.7 µM	> 60.6 µM	> 58.2 µM	43.3 µM	19.7 µM	0.0329 µM	> 48.4 µM	> 33.4 µM	> 51.1 µM	10 µM	4.08 µM
CC1CCC2C(C)C3C(CC4C5CC=C6CC(OC7OC(CO)C(O)C(OC8OC(CO)C(O)C(O)C8O)C7OC7OC(C)C(O)C(O)C7O)CCC6(C)C5CCC43C)N2C1 (stereo unspecified)	37.6 µM and > 2.5 µg/mL	21 µM and > 2.5 µg/mL	45.9 µM and > 2.5 µg/mL	29 µM and > 2.5 µg/mL	25.1 µM and > 2.5 µg/mL	38.7 µM and > 2.5 µg/mL	26.2 µM and > 2.5 µg/mL	30.6 µM and > 2.5 µg/mL	45 µM and > 2.5 µg/mL	34.1 µM and > 2.5 µg/mL	> 2.5 µg/mL	> 2.5 µg/mL	> 2.5 µg/mL	> 2.5 µg/mL	> 2.5 µg/mL	> 2.5 µg/mL	> 2.5 µg/mL	> 2.5 µg/mL	> 2.5 µg/mL	> 2.5 µg/mL
O=C1C=CN(C2OC(CO)C(O)C2O)C(=O)C1 (stereo unspecified)	625 µM and 569 µM	> 2500 µM	496 µM and > 2500 µM	> 2500 µM	296 µM and 1010 µM	> 819 µM	625 µM and > 2210 µM	> 2500 µM	> 1750 µM	625 µM and > 2500 µM	0.728 µM		23.1 µM		17.3 µM		77 µM			172 µM and 231 µM
Oc1ccc(Br)cc1/C=N/NC(=S)NC12CC3CC(CC(C3)C1)C2	2.17 µM	5.45 µM	5.8 µM	3.47 µM	8.59 µM	6.73 µM	5.89 µM		8.33 µM	4.14 µM	0.645 µM	1.98 µM	2.07 µM	0.682 µM	2.67 µM	2.25 µM	1.81 µM		2.15 µM	1.44 µM
NC(N)=N/N=C/c1cccc(Cl)c1Cl	14.7 µM	3.89 µM	15.1 µM	11.2 µM	21.8 µM	21.1 µM	25.6 µM	24.4 µM	3.64 µM	25.5 µM	3.76 µM	1.77 µM	3.39 µM	2.72 µM	6.62 µM	9.18 µM	11 µM	11.9 µM	1.54 µM	11.8 µM
CC(F)(F)c1cc(F)ccc1-c1sc2cc(O)ccc2c1Oc1ccc(/C=C/C(=O)O)cc1	23.5 µM	5.51 µM	74.8 µM	> 100 µM	20.2 µM	28.5 µM	29 µM	> 100 µM	50 µM	24.1 µM	8.18 µM	2.23 µM	8.33 µM	3.66 µM	6.26 µM	12.7 µM	11.6 µM	22 µM	7.1 µM	7.31 µM
CC(C)c1cc(CNc2nc(Nc3cc(C4CC4)[nH]n3)cc(N3CCN(C)CC3)n2)on1	> 10 µM and 1.42 µM	> 10 µM and 5.54 µM	> 10 µM and 5.76 µM	3.42 µM and 1.47 µM	> 10 µM and 4.09 µM		4.94 µM and 7.13 µM	4.19 µM and 5.52 µM	> 10 µM and 9.84 µM	> 10 µM and 2.25 µM			8.33 µM and 1.7 µM	0.0422 µM and < 0.0198 µM	1.88 µM and 1.12 µM	1.57 µM and 0.205 µM	0.462 µM and 0.175 µM	0.53 µM and 0.277 µM		1.7 µM and 0.277 µM
CCCCCCCCCCCCOC1C(C(COC2OC(C(O)CN3CCCCC3)C3OC(C)(C)OC23)NC(=O)Nc2ccccc2)OC2OC(C)(C)OC21 (stereo unspecified)	16.9 µM	20.8 µM	15.3 µM	4.3 µM	35.7 µM	25.7 µM	39.5 µM	26 µM	37.8 µM	25.4 µM	4.52 µM	7.02 µM	5.32 µM	1.91 µM	17.7 µM	11.9 µM	16.9 µM	10.2 µM	14.5 µM	10.3 µM
BrC(Br)(Br)c1cnc2ccccc2n1	4.21 µM	6.29 µM	6.02 µM	5.81 µM	4.41 µM	7.14 µM	6.8 µM	3.02 µM	3.31 µM	17.5 µM	1.36 µM	2.14 µM	2.18 µM	1.79 µM	1.52 µM	2.21 µM	2.2 µM	1.55 µM	1.33 µM	4 µM
O=C1NC(=O)C2(CCC(O)C2)c2cc[n+]([O-])cc21 (stereo unspecified)	> 100 µM	> 100 µM	> 100 µM	> 100 µM	> 100 µM	> 100 µM	> 100 µM	> 100 µM	> 100 µM	> 100 µM										
COc1cc(C2CC(c3ccc4c(c3)OCO4)=NN2C(C)=O)cc(OC)c1OC (stereo unspecified)	> 59.8 µM	0.674 µM	> 25.7 µM	> 37 µM	> 100 µM	> 21.4 µM	97.3 µM	> 100 µM	> 64.8 µM	> 100 µM	0.398 µM	0.183 µM	2.74 µM	0.33 µM	0.715 µM	1.06 µM	1.19 µM	7.59 µM	1.44 µM	6.42 µM
Cc1ccccc1-n1c(/C=C\c2ccccn2)nc2ccccc2c1=O	42.1 µM	53 µM	15 µM	20.4 µM	16.9 µM	11.3 µM	63.9 µM	> 100 µM	64.8 µM	> 100 µM	9.29 µM	8.23 µM	2.51 µM	3.05 µM	3.32 µM	3.4 µM	13.2 µM	32.6 µM	5.99 µM	15.2 µM
C=CC[Se]C(=O)Cc1c(C)n(C(=O)c2ccc(Cl)cc2)c2ccc(OC)cc12	3.19 µM	8.44 µM	5.86 µM	8.19 µM	3.05 µM	3.75 µM	3.75 µM	3.19 µM	5.7 µM	5.7 µM	0.491 µM	2.71 µM	2.28 µM	2.29 µM	1.66 µM	1.9 µM	1.88 µM	1.75 µM	2.29 µM	2.23 µM
CS(=O)c1ccc(-c2nc(-c3ccc(F)cc3)c(-c3ccncc3)[nH]2)cc1 (stereo unspecified)	> 100 µM	> 100 µM	83.6 µM	> 77 µM	> 81.9 µM	> 100 µM	> 85.5 µM	> 78.1 µM	> 100 µM	> 100 µM	33.5 µM	20.7 µM	26.2 µM	16.4 µM	21.6 µM	31.7 µM	21.9 µM	24.3 µM	18 µM	49.4 µM
COc1ccccc1CNC(=O)C1c2ccccc2C(=O)N(CC(C)C)C1c1cccs1 (stereo unspecified)	46.9 µM	39.3 µM	45.2 µM	74.7 µM	78.8 µM	> 100 µM	> 100 µM	66.9 µM	89.8 µM	> 100 µM	18.1 µM	16.8 µM	13.9 µM	13.5 µM	18.1 µM	38.4 µM	22.4 µM	26.3 µM	20.2 µM	30.6 µM
COc1cccc(Cn2cc3c(c2)-c2oncc2CC3)c1	4.1 µM	0.327 µM		6.03 µM	> 84.8 µM	1.24 µM	> 100 µM	> 100 µM	6.38 µM	> 100 µM	0.338 µM	0.0769 µM	0.365 µM	0.312 µM	0.354 µM	0.314 µM	0.801 µM	0.803 µM	0.246 µM	0.918 µM
CCCC[P+](c1ccccc1)(c1ccccc1)c1ccccc1	24.7 µM	82.6 µM	0.869 µM	> 100 µM	> 100 µM	> 100 µM	> 100 µM	> 100 µM	> 100 µM	> 100 µM	1.96 µM	1.63 µM	0.193 µM	1.96 µM	> 100 µM	4.41 µM	11.4 µM	8.29 µM	0.628 µM	5.66 µM
O=C1/C(=C/c2ccc([N+](=O)[O-])s2)Oc2ccccc21	3.53 µM	3.17 µM	3.57 µM	0.759 µM	5.22 µM	5.56 µM	2.45 µM	3.59 µM	4.12 µM	1.5 µM	1.51 µM	1.3 µM	0.379 µM	0.216 µM	2.2 µM	2.43 µM	0.839 µM	1.68 µM	0.29 µM	0.367 µM
C#CCOc1ccc2ncnc(Nc3ccc(NC(=O)CCl)cc3)c2c1	30.1 µM	> 100 µM	18.1 µM	15 µM	23.6 µM	24 µM	10.9 µM	42.7 µM	31.9 µM	22.3 µM	10.6 µM	2.67 µM	3.88 µM	2.69 µM	11.3 µM	11.7 µM	3.15 µM	13.7 µM	8.4 µM	4.67 µM
O=C(NCCCNC(=O)OCc1ccc2c(Br)cc(Br)c(O)c2n1)OCc1ccc2c(Br)cc(Br)c(O)c2n1	> 100 µM	> 100 µM	> 100 µM	> 100 µM	> 100 µM	> 100 µM	> 100 µM	> 100 µM	> 100 µM	> 100 µM	> 100 µM	> 100 µM	> 100 µM	> 100 µM	> 100 µM	> 100 µM	> 100 µM	> 100 µM	> 100 µM	> 100 µM
O=C(Nc1cccc2cccnc12)c1ccc(N2C(=O)[C@@H]3[C@H](C2=O)[C@@H]2C=C[C@H]3C2)cc1	> 100 µM	> 100 µM	> 88.2 µM	> 100 µM	> 100 µM	> 100 µM	> 100 µM	> 100 µM	> 79.3 µM	> 100 µM	34.6 µM	32.1 µM	23.2 µM	30 µM	21 µM	29.9 µM	32.7 µM	4.13 µM	20.2 µM	35.7 µM
COc1cc(OC)c(OC)cc1/C=C1\C=Cc2ccccc21	38 µM	14.5 µM	> 100 µM	> 100 µM		> 100 µM	> 100 µM	80 µM	> 100 µM	> 100 µM										
